Laboratory results: patent publication US20260000692A1, “Substituted N-(Pyridin-2-yl)Acetamide Derivatives as CDK12/13 Inhibitors” (Aurigene Oncology Limited, priority 2022, published 2026)

Molecular target: CDK12 (Homo sapiens, UniProt Q9NYV4)
Assay: Biochemical assay for CDK12 (LANCE TR-FRET, IC50 determination)
Details: for IC50: CDK12, IC50 class, read-out: IC50 μM (in range); for inhibition at 10 µM / CDK12 % Inhibition @ 10 μM: compound at 10 μM; for inhibition at 10 µM: read-out: CDK12 % Inhibition @ 10 μM
Summary of the method: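 30 nM CDK12 phosphorylated 100 nM ULight-4E-BP1 (Thr37/Thr46) peptide at 100 µM ATP, as printed, in HEPES pH 7.5 buffer with MgCl2 and DTT. Compound and enzyme were preincubated 60 min, then reacted 60 min at room temperature before stopping with EDTA and Eu anti-phospho antibody. TR-FRET 665/615 ratio gave sigmoidal IC50 fits.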

Chain of CDK12 (Q9NYV4 whole entry): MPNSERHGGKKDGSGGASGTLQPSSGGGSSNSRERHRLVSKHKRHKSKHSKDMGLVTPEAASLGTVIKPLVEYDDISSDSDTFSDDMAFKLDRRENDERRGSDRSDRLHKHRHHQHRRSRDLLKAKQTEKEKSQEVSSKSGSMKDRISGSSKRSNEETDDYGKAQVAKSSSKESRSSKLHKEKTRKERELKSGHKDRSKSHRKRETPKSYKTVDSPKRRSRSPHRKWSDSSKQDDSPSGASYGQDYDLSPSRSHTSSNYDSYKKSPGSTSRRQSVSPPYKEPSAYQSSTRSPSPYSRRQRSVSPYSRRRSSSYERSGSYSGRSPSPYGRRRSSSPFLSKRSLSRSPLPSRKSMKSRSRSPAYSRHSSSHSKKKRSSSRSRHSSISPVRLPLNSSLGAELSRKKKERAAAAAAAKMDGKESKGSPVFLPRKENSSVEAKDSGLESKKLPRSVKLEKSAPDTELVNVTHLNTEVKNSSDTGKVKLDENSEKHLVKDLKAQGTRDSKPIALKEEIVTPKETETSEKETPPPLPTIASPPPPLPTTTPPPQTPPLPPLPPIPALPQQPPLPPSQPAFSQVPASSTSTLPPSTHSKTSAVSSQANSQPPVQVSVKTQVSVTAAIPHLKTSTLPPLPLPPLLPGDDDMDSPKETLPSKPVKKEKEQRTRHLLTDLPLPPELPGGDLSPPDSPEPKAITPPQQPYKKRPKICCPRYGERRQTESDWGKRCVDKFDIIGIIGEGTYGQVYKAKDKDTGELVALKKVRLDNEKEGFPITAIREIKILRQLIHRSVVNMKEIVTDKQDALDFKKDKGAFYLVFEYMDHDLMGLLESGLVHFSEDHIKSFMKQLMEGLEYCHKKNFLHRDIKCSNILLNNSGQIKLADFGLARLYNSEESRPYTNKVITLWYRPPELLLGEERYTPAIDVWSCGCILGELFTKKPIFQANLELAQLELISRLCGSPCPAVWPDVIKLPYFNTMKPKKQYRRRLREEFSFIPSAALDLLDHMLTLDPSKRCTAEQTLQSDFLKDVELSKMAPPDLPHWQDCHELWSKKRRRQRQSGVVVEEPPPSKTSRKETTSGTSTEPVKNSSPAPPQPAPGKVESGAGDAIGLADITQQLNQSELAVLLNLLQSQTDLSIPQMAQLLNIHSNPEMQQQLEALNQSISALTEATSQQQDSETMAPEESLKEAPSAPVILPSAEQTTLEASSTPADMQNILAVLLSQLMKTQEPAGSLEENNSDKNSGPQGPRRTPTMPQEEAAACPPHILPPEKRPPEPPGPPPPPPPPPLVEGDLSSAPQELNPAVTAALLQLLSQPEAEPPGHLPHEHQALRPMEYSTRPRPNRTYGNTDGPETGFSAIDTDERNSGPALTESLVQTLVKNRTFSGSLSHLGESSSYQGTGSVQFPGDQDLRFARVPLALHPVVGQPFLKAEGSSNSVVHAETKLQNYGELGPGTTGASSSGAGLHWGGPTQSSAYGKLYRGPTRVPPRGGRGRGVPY
Chain of CDK12 (O75909 whole entry partner): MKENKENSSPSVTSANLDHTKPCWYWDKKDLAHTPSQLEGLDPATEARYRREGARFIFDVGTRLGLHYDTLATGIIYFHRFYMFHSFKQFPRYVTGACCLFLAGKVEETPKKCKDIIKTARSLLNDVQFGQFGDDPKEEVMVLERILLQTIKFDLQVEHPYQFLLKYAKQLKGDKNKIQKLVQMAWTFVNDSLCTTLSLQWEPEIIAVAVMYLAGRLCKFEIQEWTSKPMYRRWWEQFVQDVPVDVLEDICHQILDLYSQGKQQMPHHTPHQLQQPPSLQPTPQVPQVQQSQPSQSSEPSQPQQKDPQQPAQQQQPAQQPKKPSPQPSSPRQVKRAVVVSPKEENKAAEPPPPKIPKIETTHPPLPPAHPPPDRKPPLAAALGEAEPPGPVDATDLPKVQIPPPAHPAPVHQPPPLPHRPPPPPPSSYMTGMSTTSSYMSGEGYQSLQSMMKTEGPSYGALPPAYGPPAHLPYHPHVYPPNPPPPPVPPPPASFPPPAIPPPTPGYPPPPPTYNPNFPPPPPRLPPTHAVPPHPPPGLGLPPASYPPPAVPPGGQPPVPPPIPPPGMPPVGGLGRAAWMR

SMILES | IC50 | inhibition at 10 µM | inhibition at 2 µM (compound at 2 μM (stated in the cell, not the 10 μM of the column head)) | CDK12 % Inhibition @ 10 μM
CNC(=O)C(C)Oc1cc(NC(=O)Cc2ccc(-c3ccnc(C#N)c3)nc2)ncc1Cl (centres unmarked) [Compound 144, 2-((5-chloro-2-(2-(2′-cyano-[2,4′-bipyridin]-5-yl)acetamido)pyridin-4-yl)oxy)-N-methylpropanamide] | 0.01 to 0.1 µM | 92% |  | 
COc1cc(CC(=O)Nc2cc(O[C@@H]3CCOC3)c(Cl)cn2)cnc1C1CCN(C#N)CC1 [Compound 123, (R)-N-(5-chloro-4-((tetrahydrofuran-3-yl)oxy)pyridin-2-yl)-2-(6-(1-cyanopiperidin-4-yl)-5-methoxypyridin-3-yl)acetamide] | < 0.01 µM | 86% |  | 
N#CN1CCCC(c2ccc(CC(=O)Nc3cc(O[C@@H]4CCOC4)c(Cl)cn3)cn2)C1 (stereo partly drawn) [Compound 92, N-(5-chloro-4-(((R)-tetrahydrofuran-3-yl)oxy)pyridin-2-yl)-2-(6-(1-cyanopiperidin-3-yl)pyridin-3-yl)acetamide] | 0.01 to 0.1 µM | 90% |  | 
COc1cc(NC(=O)Cc2ccc(-c3cc(C)cc(C#N)n3)nc2)ncc1Cl [Compound 159, N-(5-chloro-4-methoxypyridin-2-yl)-2-(6′-cyano-4′-methyl-[2,2′-bipyridin]-5-yl)acetamide] | 0.01 to 0.1 µM |  | 90% | 
COc1cc(NC(=O)Cc2ccc(C3=CCCN(C#N)C3)cc2F)ncc1Cl [Compound 113, N-(5-chloro-4-methoxypyridin-2-yl)-2-(4-(1-cyano-1,2,5,6-tetrahydropyridin-3-yl)-2-fluorophenyl)acetamide] | 0.01 to 0.1 µM | 92% |  | 
COc1cc(NC(=O)Cc2ccc(-c3ccc(CN(C)C#N)nc3)nc2)ncc1Cl [Compound 131, N-(5-chloro-4-methoxypyridin-2-yl)-2-(6′-((N-methylcyanamido)methyl)-[2,3′-bipyridin]-5-yl)acetamide] | 0.01 to 0.1 µM | 93% |  | 
COc1cc(NC(=O)Cc2ccc(C3CC4CN(C#N)CC4C3)nc2)ncc1Cl (centres unmarked) [Compound 76, N-(5-chloro-4-methoxypyridin-2-yl)-2-(6-(2-cyanooctahydrocyclopenta[c]pyrrol-5-yl)pyridin-3-yl)acetamide] | < 0.01 µM | 90% |  | 
COc1cc(NC(=O)Cc2ccc(-c3nc(C#N)ccc3C)nc2)ncc1Cl [Compound 160, N-(5-chloro-4-methoxypyridin-2-yl)-2-(6′-cyano-3′-methyl-[2,2′-bipyridin]-5-yl)acetamide] | > 0.1 µM | 76% |  | 
CNC(=O)C(C)Oc1cc(NC(=O)Cc2ccc(C3=CCN(C#N)CC3)nc2)ncc1Cl (centres unmarked) [Compound 1, 2-((5-chloro-2-(2-(1′-cyano-1′,2′,3′,6′-tetrahydro-[2,4′-bipyridin]-5-yl)acetamido)pyridin-4-yl)oxy)-N-methylpropanamide] | < 0.01 µM | 92% |  | 
CN1CCCC1COc1cc(NC(=O)Cc2ccc(C3=CCN(C#N)CC3)nc2)ncc1Cl (centres unmarked) [Compound 54, N-(5-chloro-4-((1-methylpyrrolidin-2-yl)methoxy)pyridin-2-yl)-2-(1′-cyano-1′,2′,3′,6′-tetrahydro-[2,4′-bipyridin]-5-yl)acetamide] | > 0.1 µM | 77% |  | 
N#CN1CCC=C(c2ccc(CC(=O)Nc3ccc(Cl)cn3)cn2)C1 [Compound 5, N-(5-chloropyridin-2-yl)-2-(1′-cyano-1′,2′,5′,6′-tetrahydro-[2,3′-bipyridin]-5-yl)acetamide] | 0.01 to 0.1 µM | 75% |  | 
COc1cc(NC(=O)Cc2cnc(C3CCN(C#N)CC3)c(OC)c2)ncc1Cl [Compound 121, N-(5-chloro-4-methoxypyridin-2-yl)-2-(6-(1-cyanopiperidin-4-yl)-5-methoxypyridin-3-yl)acetamide] | < 0.01 µM | 82% |  | 
N#Cc1ccc(-c2ccc(CC(=O)Nc3cc(O[C@@H]4CCOC4)c(Cl)cn3)cn2)cn1 [Compound 146, (R)-N-(5-chloro-4-((tetrahydrofuran-3-yl)oxy)pyridin-2-yl)-2-(6′-cyano-[2,3′-bipyridin]-5-yl)acetamide] | 0.01 to 0.1 µM | 90% |  | 
COCCOc1cc(C#N)nc(-c2ccc(CC(=O)Nc3cc(OC)c(Cl)cn3)cn2)c1 [Compound 169, N-(5-chloro-4-methoxypyridin-2-yl)-2-(6′-cyano-4′-(2-methoxyethoxy)-[2,2′-bipyridin]-5-yl)acetamide] | 0.01 to 0.1 µM | 95% |  | 
COc1cc(NC(=O)C(C)c2ccc(C3=CCN(C#N)CC3)nc2)ncc1Cl (centres unmarked) [Compound 51, N-(5-chloro-4-methoxypyridin-2-yl)-2-(1′-cyano-1′,2′,3′,6′-tetrahydro-[2,4′-bipyridin]-5-yl)propanamide] | < 0.01 µM | 102% |  | 
COc1cc(NC(=O)Cc2ccc(C3=CC4CCC(C3)N4C#N)nc2)ncc1Cl (centres unmarked) [Compound 73, N-(5-chloro-4-methoxypyridin-2-yl)-2-(6-(8-cyano-8-azabicyclo[3.2.1]oct-2-en-3-yl)pyridin-3-yl)acetamide] | < 0.01 µM | 87% |  | 
COc1cc(NC(=O)Cc2ccc(C3=CC4CN(C#N)CC4C3)nc2)ncc1Cl (centres unmarked) [Compound 75, N-(5-chloro-4-methoxypyridin-2-yl)-2-(6-(2-cyano-1,2,3,3a,4,6a-hexahydrocyclopenta[c]pyrrol-5-yl)pyridin-3-yl)acetamide] | < 0.01 µM | 96% |  | 
N#CN1CC=C(c2ccc(CC(=O)Nc3cc(OC4CC5(CNC5)C4)c(Cl)cn3)cn2)CC1 [Compound 137, N-(4-((2-azaspiro[3.3]heptan-6-yl)oxy)-5-chloropyridin-2-yl)-2-(1′-cyano-1′,2′,3′,6′-tetrahydro-[2,4′-bipyridin]-5-yl)acetamide] | 0.01 to 0.1 µM | 89% |  | 
N#CN1CC=C(c2ccc(CC(=O)Nc3cc(OC4CCOC4)c(Cl)cn3)cn2)CC1 (centres unmarked) [Compound 12, N-(5-chloro-4-((tetrahydrofuran-3-yl)oxy)pyridin-2-yl)-2-(1′-cyano-1′,2′,3′,6′-tetrahydro-[2,4′-bipyridin]-5-yl)acetamide] | < 0.01 µM | 84% |  | 
COc1cc(NC(=O)C(C)(C)c2ccc(C3=CCCN(C#N)C3)nc2)ncc1Cl [Compound 110, N-(5-chloro-4-methoxypyridin-2-yl)-2-(1′-cyano-1′,2′,5′,6′-tetrahydro-[2,3′-bipyridin]-5-yl)-2-methylpropanamide] |  | 57% |  | 

More lines, now with the values ahead:

IC50 | inhibition at 10 µM | inhibition at 2 µM (compound at 2 μM (stated in the cell, not the 10 μM of the column head)) | CDK12 % Inhibition @ 10 μM | SMILES
< 0.01 µM | 100% |  |  | CNC(=O)C(C)Oc1cc(NC(=O)Cc2ccc(C3=CCCN(C#N)C3)nc2)ncc1Cl (centres unmarked) [Compound 56, 2-((5-chloro-2-(2-(1′-cyano-1′,2′,5′,6′-tetrahydro-[2,3′-bipyridin]-5-yl)acetamido)pyridin-4-yl)oxy)-N-methylpropanamide]
> 0.1 µM | 86% |  |  | CN1CCCC1COc1cc(NC(=O)Cc2ccc(C3=CCCN(C#N)C3)nc2)ncc1Cl (centres unmarked) [Compound 55, N-(5-chloro-4-((1-methylpyrrolidin-2-yl)methoxy)pyridin-2-yl)-2-(1′-cyano-1′,2′,5′,6′-tetrahydro-[2,3′-bipyridin]-5-yl)acetamide]
0.01 to 0.1 µM | 89% |  |  | CNC(=O)[C@H](C)Oc1cc(NC(=O)Cc2ccc(-c3ccnc(C#N)c3)nc2)ncc1Cl [Compound 148, (S)-2-((5-chloro-2-(2-(2′-cyano-[2,4′-bipyridin]-5-yl)acetamido)pyridin-4-yl)oxy)-N-methylpropanamide]
> 0.1 µM | 78% |  |  | CP(C)(=O)c1cc(NC(=O)Cc2ccc(C3=CCCN(C#N)C3)nc2)ncc1Cl [Compound 135, N-(5-chloro-4-(dimethylphosphoryl)pyridin-2-yl)-2-(1′-cyano-1′,2′,5′,6′-tetrahydro-[2,3′-bipyridin]-5-yl)acetamide]
0.01 to 0.1 µM | 85% |  |  | CN1CCC[C@H](Oc2cc(NC(=O)Cc3ccc(C4=CCCN(C#N)C4)nc3)ncc2Cl)C1 [Compound 47, (S)-N-(5-chloro-4-((1-methylpiperidin-3-yl)oxy)pyridin-2-yl)-2-(1′-cyano-1′,2′,5′,6′-tetrahydro-[2,3′-bipyridin]-5-yl)acetamide]
< 0.01 µM | 91% |  |  | N#CN1CCC=C(c2ccc(CC(=O)Nc3cc(O[C@@H]4CCOC4)c(Cl)cn3)cn2)C1 [Compound 40, (R)-N-(5-chloro-4-((tetrahydrofuran-3-yl)oxy)pyridin-2-yl)-2-(1′-cyano-1′,2′,5′,6′-tetrahydro-[2,3′-bipyridin]-5-yl)acetamide]
0.01 to 0.1 µM | 92% |  |  | CNC(=O)C(C)Oc1cc(NC(=O)Cc2ccc(C3CCCN(C#N)C3)nc2)ncc1Cl (centres unmarked) [Compound 85, 2-((5-chloro-2-(2-(6-(1-cyanopiperidin-3-yl)pyridin-3-yl)acetamido)pyridin-4-yl)oxy)-N-methylpropanamide]
0.01 to 0.1 µM |  |  | 90% | CNC(=O)C(C)Oc1cc(NC(=O)Cc2ccc(C3CCCN(C#N)C3)nc2)ncc1Cl (single isomer, unassigned) [Compound 89, 2-((5-chloro-2-(2-(6-(1-cyanopiperidin-3-yl)pyridin-3-yl)acetamido)pyridin-4-yl)oxy)-N-methylpropanamide]
< 0.01 µM |  |  | 98% | CNC(=O)C(C)Oc1cc(NC(=O)Cc2ccc(C3=CCCN(C#N)C3)nc2)ncc1Cl (single isomer, unassigned) [Compound 58, 2-((5-chloro-2-(2-(1′-cyano-1′,2′,5′,6′-tetrahydro-[2,3′-bipyridin]-5-yl)acetamido)pyridin-4-yl)oxy)-N-methylpropanamide]
< 0.01 µM | 89% |  |  | COc1cc(NC(=O)C(C)c2ccc(C3=CCCN(C#N)C3)nc2)ncc1Cl (single isomer, unassigned) [Compound 49]
